Experimental data: ChEMBL document CHEMBL5143734, “Seco-Lupane Triterpene Derivatives Induce Ferroptosis through GPX4/ACSL4 Axis and Target Cyclin D1 to Block the Cell Cycle” (J Med Chem, 2022)

Experiments:
HepG2 [1] = test: Downregulation of Cyclin B1 mRNA expression in human HepG2 cells assessed as fragments per kilo base of exon per million mapped fragments by RT-qPCR analysis (reference value: 54.40 to 58.62); assay type: functional
HepG2 [2] = test: Induction of ferroptosis in human HepG2 cells assessed as upregulation of ACSL4 mRNA expression by measuring fragments per kilo base of exon per million mapped fragments […] (reference value: 75.85 to 97.44); assay type: functional
HepG2 [3] = test: Downregulation of Cyclin D1 mRNA expression in human HepG2 cells assessed as fragments per kilo base of exon per million mapped fragments by RT-qPCR analysis (reference value: 59.65 to 61.74); assay type: functional
HepG2 [4] = test: Induction of ferroptosis in human HepG2 cells assessed as decrease in GPX4 protein expression at 2 uM by Western blot analysis; assay type: functional, cell-based; settings: time 6-36 hrs, TDE = time-dependent effect
HepG2 [5] = test: Downregulation of Cyclin E1 mRNA expression in human HepG2 cells at 0.5 to 2.0 uM by RT-qPCR analysis; assay type: functional, cell-based; settings: dose 0.5-2 µM, time 6-36 hrs, TDE = time-dependent effect
HepG2 [6] = test: Downregulation of Cyclin D1 mRNA expression in human HepG2 cells at 0.5 to 2.0 uM by RT-qPCR analysis; assay type: functional, cell-based; settings: dose 0.5-2 µM, time 6-36 hrs, TDE = time-dependent effect
HepG2 [7] = test: Downregulation of Cyclin B1 mRNA expression in human HepG2 cells at 0.5 to 2.0 uM by RT-qPCR analysis; assay type: functional, cell-based; settings: dose 0.5-2 µM, time 6-36 hrs, TDE = time-dependent effect
HepG2 [8] = test: Induction of ferroptosis in human HepG2 cells assessed as decrease in GPX4 mRNA expression measured after 36 hrs by qRT-PCR analysis; assay type: functional, cell-based; settings: dose […], DDE = dose-dependent effect
HepG2 [9] = test: Induction of cell death in human HepG2 cells measured after 48 hrs by Annexin V-FITC/PI double staining based flow cytometry analysis; assay type: functional; settings: dose 0.5-2 µM, DDE = dose-dependent effect
HepG2 [10] = test: Downregulation of Cyclin A2 mRNA expression in human HepG2 cells at 0.5 to 2.0 uM by RT-qPCR analysis; assay type: functional, cell-based; settings: dose 0.5-2 µM, time 6-36 hrs, TDE = time-dependent effect

Structure (SMILES): C=C(C)[C@@H]1CC[C@]2(C(=O)OCCCCCn3cc(CCN)c4ccccc43)CC[C@]3(C)[C@H](C[C@H]4OC(=O)C[C@@H](O)[C@]5(C)[C@@H]4[C@@]3(C)CC[C@H]5C(=C)C)[C@@H]12
- Activity (HepG2 [1]): 39.59
- Activity (HepG2 [2]): 132.19
- Activity (HepG2 [3]): 53.4
- Activity (HepG2 [4]): Tde
- Activity (HepG2 [5]): Tde
- Activity (HepG2 [6]): Tde
- Activity (HepG2 [7]): Tde
- Activity (HepG2 [8]): Dde
- Activity (HepG2 [9]): Dde
- Activity (HepG2 [10]): Tde
